Results: US20250032651A1, “[177LU] LUTETIUM-PSMA I&T COMPOSITION AND DOSIMETRY, KIT, METHOD OF MAKING, AND METHOD OF USING THEREOF” (Curium US LLC, priority 2022, published 2025)
Where “and” joins values, the source holds several entries; their conditions need not be identical. Identical values can stand only once.

Experiment: Plasma PK: gamma-counted plasma radioactivity, bi-exponential fit
Type: in vivo, human
Description: Additionally, for PK assessment, whole blood samples were collected at six timepoints (Pre-Infusion, 1 h, 4 h, 24 h, 48 h, and 168 h) and processed to extract plasma. All plasma samples were gamma counted locally for analysis of pharmacokinetics.
PK plasma samples were collected at pre-Infusion, 1 h, 4 h, 24 h, 48 h, and 168 h, and counted for radioactivity. Blood samples were first centrifuged to extract plasma, and then the radioactivity in plasma was counted in a gamma counter.
Whole blood samples were collected as detailed in the protocol Schedule of Events i.e. pre-injection, and then at 1 h, 4 h, 24 h, 48 h, and 168 h post-injection. The samples were first centrifuged to separate plasma, and the radioactivity in the plasma was then measured using a gamma counter. Plasma concentrations were subsequently fitted with a bi-exponential function to derive outcome parameters such as the half-life and clearance rate of the radiopharmaceutical in the plasma.

[1] = Cycle 1, plasma radioactivity, bi-exponential fit
[2] = plasma, Cycle 1, excluding patient 42-030
[3] = plasma, Cycle 1, individual patient values
[4] = plasma, Cycle 1, individual patients

O=C([O-])CC[C@H](NC(=O)N[C@@H](CCCCNC(=O)CCCCCCC(=O)NCCCC[C@@H](NC(=O)[C@@H](Cc1ccccc1)NC(=O)[C@@H](Cc1ccc(O)c(I)c1)NC(=O)CC[C@H](C(=O)[O-])N1CCN(CC(=O)[O-])CCN(CC(=O)[O-])CCN(CC(=O)[O-])CC1)C(=O)[O-])C(=O)[O-])C(=O)[O-].[177Lu+3].[H+].[H+].[H+].[H+].[H+] [^177Lu-PSMA I&T, (3S,7S,26R,29R,32R,37R)-29-benzyl-32-(4-hydroxy-3-iodobenzyl)-5,13,20,28,31,34-hexaoxo-37-(4,7,10-tris(carboxymethyl)-1,4,7,10-tetraazacyclododecan-1-yl)-4,6,12,21,27,30,33-heptaazaheptatriacontane-1,3,7,26,37-pentacarboxylic acid; lutetium-177 (III)]
plasma clearance (Cycle 1): 13.06 ± 16.50 L/h | plasma half-life, outlier value (Cycle 1, patient 42-030 (superscan)): 113.96 h | time to peak plasma concentration (Cycle 1, patient 80-007, first post-administration sample delayed): 127 min | plasma mean distribution half-life [1]: 1.89 ± 0.34 h | plasma mean elimination half-life [1]: 14.7 ± 10.1 h and 14.70 ± 10.10 h | distribution volume (Cycle 1 plasma PK): moderate-to-high | AUC Total (plasma, Cycle 1, Mean): 22.77 fIA/L × min | Clearance Rate (plasma, Cycle 1, Mean): 13.06 L/h | Peak Concentration Value (plasma, Cycle 1, Mean): 0.04 fIA/L | Time of Peak Concentration (plasma, Cycle 1, Mean): 59.19 min | Vc (plasma, Cycle 1, Mean): 20.29 L | Vd (plasma, Cycle 1, Mean): 234.64 L | AUC Total, Mean [2]: 22.77 fIA/L x min | AUC Total, max [2]: 37.86 fIA/L x min | AUC Total, median [2]: 20.84 fIA/L x min | AUC Total, min [2]: 3.07 fIA/L x min | Clearance Rate, Mean [2]: 13.06 L/h | Clearance Rate, max [2]: 89.38 L/h | Clearance Rate, median [2]: 9.79 L/h | Clearance Rate, min [2]: 2.89 L/h | Distribution Half-Life, Mean [2]: 1.89 h | Distribution Half-Life, max [2]: 2.42 h | Distribution Half-Life, median [2]: 1.93 h | Distribution Half-Life, min [2]: 1.14 h | Elimination Half-Life, Mean [2]: 14.70 h | Elimination Half-Life, max [2]: 53.30 h | Elimination Half-Life, median [2]: 10.52 h | Elimination Half-Life, min [2]: 8.16 h | Peak Concentration Value, Mean [2]: 0.04 fIA/L | Peak Concentration Value, max [2]: 0.07 fIA/L | Peak Concentration Value, median [2]: 0.04 fIA/L | Peak Concentration Value, min [2]: 0.01 fIA/L | Time of Peak Concentration [2]: 33.00 min | Time of Peak Concentration, Mean [2]: 59.19 min | Time of Peak Concentration, max [2]: 127.00 min | Time of Peak Concentration, median [2]: 59.00 min | Vc, Mean [2]: 20.29 L | Vc, max [2]: 111.78 L | Vc, median [2]: 16.33 L | Vc, min [2]: 9.92 L | distribution volume (column headed "Patient"), Mean [2]: 234.64 | distribution volume (column headed "Patient"), max [2]: 1365.03 | distribution volume (column headed "Patient"), median [2]: 157.12 | distribution volume (column headed "Patient"), min [2]: 54.60 | AUC Total [3]: 30.05 fIA/L x min and 27.64 fIA/L x min and 20.58 fIA/L x min and 19.49 fIA/L x min and 3.07 fIA/L x min and 25.59 fIA/L x min and 25.58 fIA/L x min and 21.49 fIA/L x min and 26.70 fIA/L x min and 31.83 fIA/L x min and 15.14 fIA/L x min and 28.67 fIA/L x min and 17.09 fIA/L x min and 19.85 fIA/L x min and 34.96 fIA/L x min and 24.13 fIA/L x min and 13.46 fIA/L x min and 17.93 fIA/L x min and 18.79 fIA/L x min and 15.54 fIA/L x min and 19.50 fIA/L x min and 37.86 fIA/L x min and 21.09 fIA/L x min and 34.60 fIA/L x min and 33.81 fIA/L x min and 19.09 fIA/L x min and 15.16 fIA/L x min | Clearance Rate [3]: 3.89 L/h and 4.21 L/h and 9.97 L/h and 17.94 L/h and 89.38 L/h and 6.26 L/h and 9.62 L/h and 7.63 L/h and 2.82 L/h and 4.73 L/h and 21.26 L/h and 2.89 L/h and 20.65 L/h and 8.08 L/h and 5.73 L/h and 7.92 L/h and 17.68 L/h and 10.55 L/h and 14.19 L/h and 17.10 L/h and 10.68 L/h and 3.95 L/h and 13.78 L/h and 3.66 L/h and 4.78 L/h and 12.34 L/h and 10.74 L/h | Distribution Half-Life [3]: 1.14 h and 2.14 h and 1.88 h and 1.93 h and 1.69 h and 2.13 h and 2.19 h and 2.31 h and 1.81 h and 1.66 h and 1.78 h and 1.35 h and 1.77 h and 2.12 h and 1.92 h and 2.39 h and 1.30 h and 2.03 h and 2.42 h and 1.46 h and 2.05 h and 2.04 h and 2.22 h and 2.21 h and 1.67 h | Elimination Half-Life [3]: 9.61 h and 24.34 h and 15.32 h and 9.32 h and 10.58 h and 10.59 h and 12.43 h and 10.02 h and 10.46 h and 113.96 h and 9.19 h and 12.50 h and 53.30 h and 10.35 h and 9.28 h and 8.16 h and 8.92 h and 35.48 h and 8.68 h and 11.79 h and 19.98 h and 11.28 h and 9.41 h and 23.96 h and 16.65 h | Vc [3]: 21.87 L and 15.83 L and 16.82 L and 13.76 L and 111.78 L and 17.80 L and 11.45 L and 20.41 L and 38.22 L and 10.76 L and 18.90 L and 22.65 L and 15.26 L and 21.10 L and 9.92 L and 17.87 L and 22.51 L and 14.72 L and 16.91 L and 25.15 L and 17.72 L and 12.87 L and 15.24 L and 14.74 L and 11.55 L and 15.53 L and 14.35 L | distribution volume (column headed "Patient") [3]: 136.62 and 93.01 and 134.00 and 273.75 and 1365.03 and 112.27 and 139.07 and 115.14 and 463.99 and 62.71 and 383.51 and 222.08 and 308.54 and 108.16 and 67.50 and 118.24 and 227.51 and 540.13 and 177.78 and 291.02 and 307.91 and 64.25 and 187.12 and 54.60 and 165.33 and 296.49 and 148.91 | Time of Peak Concentration (plasma, Cycle 1, individual patient values, time of first post-administration sample): 53.00 min and 60.00 min (6×) and 51.00 min (2×) and 58.00 min and 61.00 min (2×) and 50.00 min and 63.00 min and 57.00 min and 55.00 min and 52.00 min (2×) and 68.00 min and 71.00 min and 65.00 min and 33.00 min and 40.00 min and 69.00 min and 56.00 min and 127.00 min and 47.00 min | Peak Concentration Value (plasma, Cycle 1, individual patient values, value of first post-administration sample): 0.04 fIA/L (10×) and 0.03 fIA/L (4×) and 0.05 fIA/L (7×) and 0.01 fIA/L and 0.06 fIA/L (2×) and 0.02 fIA/L and 0.07 fIA/L (2×) | AUC Total [4]: 19.09 fIA/L × min and 15.16 fIA/L × min and 30.05 fIA/L × min and 27.64 fIA/L × min and 20.58 fIA/L × min and 19.49 fIA/L × min and 3.07 fIA/L × min and 25.59 fIA/L × min and 25.58 fIA/L × min and 21.49 fIA/L × min and 26.70 fIA/L × min and 31.83 fIA/L × min and 15.14 fIA/L × min and 28.67 fIA/L × min and 17.09 fIA/L × min and 19.85 fIA/L × min and 34.96 fIA/L × min and 24.13 fIA/L × min and 13.46 fIA/L × min and 17.93 fIA/L × min and 18.79 fIA/L × min and 15.54 fIA/L × min and 19.50 fIA/L × min and 37.86 fIA/L × min and 21.09 fIA/L × min and 34.60 fIA/L × min and 33.81 fIA/L × min | Clearance Rate [4]: 12.34 L/h and 10.74 L/h and 3.89 L/h and 4.21 L/h and 9.97 L/h and 17.94 L/h and 89.38 L/h and 6.26 L/h and 9.62 L/h and 7.63 L/h and 2.82 L/h and 4.73 L/h and 21.26 L/h and 2.89 L/h and 20.65 L/h and 8.08 L/h and 5.73 L/h and 7.92 L/h and 17.68 L/h and 10.55 L/h and 14.19 L/h and 17.10 L/h and 10.68 L/h and 3.95 L/h and 13.78 L/h and 3.66 L/h and 4.78 L/h | Peak Concentration Value [4]: 0.05 fIA/L (7×) and 0.04 fIA/L (10×) and 0.03 fIA/L (4×) and 0.01 fIA/L and 0.06 fIA/L (2×) and 0.02 fIA/L and 0.07 fIA/L (2×) | Time of Peak Concentration [4]: 47.00 min and 53.00 min and 60.00 min (6×) and 51.00 min (2×) and 58.00 min and 61.00 min (2×) and 50.00 min and 63.00 min and 57.00 min and 55.00 min and 52.00 min (2×) and 68.00 min and 71.00 min and 65.00 min and 33.00 min and 40.00 min and 69.00 min | Vc [4]: 15.53 L and 14.35 L and 21.87 L and 15.83 L and 16.82 L and 13.76 L and 111.78 L and 17.80 L and 11.45 L and 20.41 L and 38.22 L and 10.76 L and 18.90 L and 22.65 L and 15.26 L and 21.10 L and 9.92 L and 17.87 L and 22.51 L and 14.72 L and 16.91 L and 25.15 L and 17.72 L and 12.87 L and 15.24 L and 14.74 L and 11.55 L | Vd [4]: 296.49 L and 148.91 L and 136.62 L and 93.01 L and 134.00 L and 273.75 L and 1365.03 L and 112.27 L and 139.07 L and 115.14 L and 463.99 L and 62.71 L and 383.51 L and 222.08 L and 308.54 L and 108.16 L and 67.50 L and 118.24 L and 227.51 L and 540.13 L and 177.78 L and 291.02 L and 307.91 L and 64.25 L and 187.12 L and 54.60 L and 165.33 L | AUC Total (plasma, Cycle 1, max): 37.86 fIA/L × min | Clearance Rate (plasma, Cycle 1, max): 89.38 L/h | Peak Concentration Value (plasma, Cycle 1, max): 0.07 fIA/L | Time of Peak Concentration (plasma, Cycle 1, max): 127.00 min | Vc (plasma, Cycle 1, max): 111.78 L | Vd (plasma, Cycle 1, max): 1365.03 L | AUC Total (plasma, Cycle 1, median): 20.84 fIA/L × min | Clearance Rate (plasma, Cycle 1, median): 9.79 L/h | Peak Concentration Value (plasma, Cycle 1, median): 0.04 fIA/L | Vc (plasma, Cycle 1, median): 16.33 L | Vd (plasma, Cycle 1, median): 157.12 L
